Results taken from patent US20220153780A1, “SALT FORMS OF S-(N, N-DIETHYLCARBAMOYL)GLUTATHIONE” (Tonix Pharma Holdings Limited, priority 2019, published 2022).

System: C57BL/6J mice
Assay: Voluntary ethanol intake in chronic intermittent ethanol (CIE) exposed and air-exposed (CTL) mice, limited access drinking
Format: in vivo
Settings: for weekly average ethanol intake vs vehicle: nondependent (CTL) mice; for ethanol intake as percent change from vehicle group: Test cycles 5 and 7
Description: Following the established protocol, adult male C57BL/6J mice (N=96) were trained to drink ethanol in a limited access (2 hour/day) free-choice (15% v/v ethanol vs. water) drinking procedure. After four weeks, stable baseline level of intake was established, and mice were separated into two groups. One group of mice (CIE group) was exposed to chronic intermittent ethanol (CIE) vapor exposure in inhalation chambers (16 hour/days x 4 days). The remaining mice (CTL group) were treated similarly but exposed to air in inhalation chambers. After a 72 hour forced abstinence period, all mice resumed ethanol drinking in the same limited access paradigm for a 5-day test period. This pattern of weekly CIE (or air) exposure cycles with intervening weekly test drinking cycles was repeated for seven cycles following procedures previously published (Becker and Lopez, 2004; Griffin et al., 2009; Lopez and Becker, 2005).
All mice received intraperitoneal (IP) administration of saline 30 min prior to the start of daily drinking sessions during baseline and the early test cycles to acclimate the animals to the handling procedure. After the fourth ethanol intake test cycle, mice were further divided into carbamathione dose treatment conditions (N=10-12/group).
After Test 4, CIE and CTL mice were separated in dose groups for Test 5 (N=11-12/group), with the groups equated for intake during Test 4. Mice received intraperitoneal (IP) injections of carbamathione (100, 200 or 400 mg/kg) or vehicle (0.25% carboxymethyl cellulose, CMC in water) 30 min before drinking. The carbamathione IP injections were administered as a suspension. Ethanol intake during Test 5 was averaged for the week and analyzed by ANOVA, with Group (CTL, CIE) and carbamathione dose (0, 100, 200, 400 mg/kg) as between-subject factors. ANOVA indicated a significant main effect of Group [F(1,78)=53.33; p<0.0001], reflecting a higher level of ethanol intake in CIE mice compared to CTL mice (* in FIG. 4).
The efficacy of carbamathione in reducing ethanol intake in mice was next compared to the efficacy of disulfiram, an FDA approved drug used in the treatment of chronic alcoholism. The mice were exposed to a sixth cycle of CIE (or air) and evaluated for intake with the same procedure used in the previous test cycle, except that disulfiram was included as a comparator drug. Mice that received vehicle or 400 mg/kg carbamathione continued with this treatment schedule. Mice that received 100 or 200 mg/kg carbamathione were combined and randomly redistributed to receive 75 or 100 mg/kg disulfiram during the first two days and these doses were increased to 125 and 150 mg/kg disulfiram, respectively for the last three days of Test 6. Disulfiram doses were prepared with the same vehicle used for carbamathione (i.e., 0.25% CMC). Separate analyses were conducted to evaluate the effect of carbamathione and disulfiram treatment. Data presented in FIG. 5 show the weekly average intake for CIE and CTL mice that received vehicle or carbamathione. […] Data for mice that received vehicle, 75, or 100 mg/kg of disulfiram were averaged over the first two days of the week. […]
Mice were evaluated again for voluntary ethanol intake after a seventh and final CIE or air exposure cycle. During the five days of Test 7, mice that received vehicle injections from the start of the study continued to receive vehicle injections. Mice that received carbamathione and disulfiram in Test cycles 5 and 6 received vehicle injections in Test 7 to evaluate any long-lasting effect of previous treatment (drug washout evaluation). Finally, mice that received 400 mg/kg carbamathione continued treatment with a higher dose of carbamathione (600 mg/kg). Analysis of the groups that received vehicle injections during Test 7 was performed with Group (CIE, CTL) and previous treatment (vehicle, low, or high disulfiram dose) as main factors. This analysis indicated a significant main effect of Group [F(1,59)=25.36; p<0.0001]. […] (data not shown). […]

CCN(CC)C(=O)SCC(NC(=O)CCC(N)C(=O)O)C(=O)NCC(=O)O (centres unmarked) [carbamathione, S—(N,N-diethylcarbamoyl)glutathione]
reduction in ethanol intake, CTL mice compared to CIE-exposed mice (200, 400 and 600 mg/kg, percent change from vehicle): significantly larger reduction in ethanol intake
weekly average ethanol intake vs vehicle and 100 mg/kg (Test 5, 400 mg/kg IP in 0.25% CMC, 30 min before drinking, CIE and CTL mice together): significantly lower ethanol intake
weekly average ethanol intake vs vehicle (Test 5, 200 mg/kg IP): significantly reduced ethanol intake
weekly average ethanol intake vs vehicle (Test 5, 400 mg/kg IP): significantly reduced ethanol intake
weekly average ethanol intake vs vehicle, pair-wise comparison (Test 6, 400 mg/kg IP, p=0.07): trend for lower ethanol intake
ethanol intake vs vehicle (Test 7, 600 mg/kg IP, CIE and CTL groups, 600 mg/kg): significantly reduce ethanol intake
ethanol intake as percent change from vehicle group (CIE mice, 600 mg/kg (only the highest dose)): significant decrease in ethanol intake
ethanol intake as percent change from vehicle group (CTL mice, 200, 400 and 600 mg/kg): significant reduction in voluntary ethanol intake
